Data taken from patent US20250302913A1, “LACRIPEP PROMOTES NEUROREGENERATION AND MAINTAINS EPITHELIAL PROGENITOR CELL IDENTITY” (The Regents of The University of California, priority 2022, published 2025).

Columns and labels:
Assay type in all cases: in vivo, mouse
ZO1 = assay: Immunofluorescent quantification of tight junction protein ZO1 in corneal epithelium; settings: day 15; Aire KO cornea
Source text: (§1) As dry eye results in disruption of ocular surface integrity resulting in cornea barrier dysfunction and, consequently, fluid loss and pathogen invasion (11), we next determined whether lacripep maintains corneal epithelial architecture by analyzing lissamine green uptake at day 7 and 15. […] Restoration of barrier function was further confirmed by analyzing the superficial epithelial layers for the tight junction protein ZO1 which is essential to the structural integrity of the corneal epithelium (12).
Immunohistological and immunofluorescent analyses of cornea and lacrimal gland samples were performed as previously described (8). […]
For immunofluorescent analysis, 7 or 20 μm tissue sections were incubated with the following primary antibodies: mouse anti-ZO1 conjugated to Alexa594 (1:1000, Life Technologies, Cat 339194), rabbit anti-KRT6A (1:800, Cell Signaling, Cat 4912S), chicken anti-KRT14 (1:1500, Santa Cruz, Cat 515882), rat anti-Ki67 (1:200, Biolegend, 652405), rat anti-CD4 (1:200, Santa Cruz), rabbit anti-TUBB3 (1:500, Cell Signaling, Cat 5568S), and rat anti-Ecadherin (1:300, Life Technologies, Cat 131900). Antibodies were detected using Cy2-, Cy3- or Cy5-conjugated secondary Fab fragment antibodies (Jackson Laboratories), and nuclei were stained with Hoechst 33342 (1:3000, Sigma-Aldrich). […]
Quantification of tight junction protein ZO1. […]

Aire KO corneas = assay: Epithelial barrier function by lissamine green uptake
Source text: as §1
Aire KO female mice aged 5 weeks were used for the study. All mice were topically treated with 5 μL per eye of 4 μM lacripep. Dosing was three times daily for 14 consecutive days. Lissamine green staining assessment and tear secretion assays were performed on each eye before treatment at baseline, 7 days and 14 days post treatment
After mice were anesthetized with isoflurane, 5 μL of lissamine green dye (1%) was applied to the lower conjunctival cul-de-sac. […] Lissamine green staining was scored by dividing the cornea into four quadrants, the extent of staining in each quadrant was classified as Grade 0, no staining; Grade 1, sporadic (<25%); Grade 2, diffuse punctate (25-75%), or Grade 3, coalesced punctate staining (75% or more). The total score was calculated separately for each eye and equaled the sum of all four quadrants ranging from 0 (no staining) to 12 (most severe staining). […]

[1] = test system: corneal nerves of Aire KO corneas; assay: Corneal nerve density (GAP43, TUBB3, SP, CGRP immunolabeling)
Source text: To test for changes in innervation, corneas isolated from the four treatment groups at day 15 were immunostained for growth-associated protein 43 (GAP43), a marker of remodeling axons (25), along with two common sensory neuropeptides, substance P (SP) and calcitonin-gene related protein (CGRP). SP and CGRP are differentially expressed to carry out discrete functions: SP is released in response to trigeminal activation to modulate tear secretion and goblet cell function (26) while CGRP is involved in multiple homeostatic processes, including corneal epithelium regeneration and regulation of vasculature (27, 28). […] Thus, lacripep treatment successfully regenerates the sensory nerve supply to the inflamed cornea during disease progression.
Given nerve-epithelial interactions are essential for mediating physiological tear secretion, we next assessed innervation to corneal epithelial cell layers at 2 wks of treatment (day 15, 7 wks of age) through immunofluorescent analysis.
Next, we questioned the timing of epithelial reinnervation in response to lacripep treatment by analyzing the nerve supply at the 7 day time point (6 wks of age) through 3D imaging of intact whole mount corneas (FIG. 3A). […] Of note, the pro-regenerative cellular changes after axon injury result in neurons switching from an active, electrically transmitting state back to an electrically silent, growth-competent state (29-31), thereby likely impairing increased basal tear production at the 7 day time point for lacripep treated mice compared to untreated Aire KO controls (FIG. 1B).
For corneal whole mount staining, PFA fixed corneas were blocked and incubated in primary antibodies for 48 hr at 4° C.: Mouse anti-TUBB3 (1:300, R&D, MAB 1195), rabbit anti-GAP43 (1:400, Novus bio, NB 300-143), goat anti-CGRP (1:300, Thermo fisher, PA1-85250), and rat anti-Substance P (1:500, Millipore, MAB 356). This was followed by extensive washes in PBST before tissue was incubated in secondary antibodies overnight at 4° C.
Quantification of corneal epithelial nerve density and synapses. Tissue sections: TUBB3+ nerve density within 300 μm sections of central cornea epithelial ROI was quantified by applying Tsai's thresholding method (Moments), with integrated densities within the ROI of the thresholded image being recorded. Corneal whole mounts: The density of nerves expressing GAP43, TUBB3, or GAP43 and TUBB3 (% Area of 354 μm×396 μm) was quantified from central cornea images of whole mount cornea and plotted in a stacked bar graph to visualize the proportion of each of the three nerve types. Similarly, numbers of synapses marked by expression of GAP43, TUBB3, or GAP43 and TUBB3 were counted per respective region of central cornea (100 μm2) and plotted in a stacked bar graph. The density of GAP43+ nerves were quantified from the whole mount cornea images (354 μm×396 μm) applying Tsai's threshold as described above.
3D reconstruction of nerve fibers. Acquired confocal Z-stacks comprising epithelial and stroma were reconstructed into 3D images using Imaris image analysis software (Bitplane AG, Zurich, Switzerland). The surface of the nuclei (Hoechst) and nerves (TUBB3/GAP43/SP/CGRP) were segmented using the background subtraction threshold. Each channel was obtained separately. Touching nuclei were split by the calculated seed points inside each area.

“Ac-KQFIENGSEFAQKLLKKFSLLKPWA-NH2 [lacripep, amino terminus acetylated, carboxyl terminus aminated]” was tested, and the “ZO1 expression in superficial epithelial layers” value (ZO1) was “mimicked that of WT controls”, the lissamine green uptake (Aire KO corneas; day 7, compared to WT controls) was “increased lissamine green uptake compared to WT controls” and the “epithelial barrier function (lissamine green uptake)” value (Aire KO corneas; day 15, uptake levels resembling WT corneas) was “significantly improved”. For the same substance, the “proportion of GAP43+ TUBB3+ nerves in central cornea” value ([1]; day 7, WT 37%) was 26%, the “proportion of GAP43+ nerves in central cornea” value ([1]; day 7, WT 43%) was 50% and the “nerve density of central cornea relative to WT tissue” value ([1]; day 7, whole mount) was 45 % of the nerve density of WT tissue. For the same substance, the nerve density level ([1]; day 15) was “returning to that of WT cornea”, the “innervation of epithelial cell layers (TUBB3+ axons)” value ([1]; day 15, central corneal cross-sections) was “resembled that of WT tissue” and the “density of GAP43+ nerve fibers expressing SP and CGRP” value ([1]; day 15, whole mount cornea) was “nearly equivalent to that of the WT controls”.
